Patent publication US20250275993A1, “GLYCOSYLATION INHIBITORS AS THERAPEUTICS FOR STROKE” (The Regents of the University of California, priority 2022, published 2025)
“Also recorded” adds a separate entry of the source.

Legend:
Bip, CHOP, ATF-6 = experiment: Western blot of UPR responsive proteins in BCECs; type: cell-based, bovine; details: for restoration of ATF-6 expression: ManN at 400 μM
[1] = system: bovine choroidal microvascular endothelial cells (BCEC); experiment: BCEC proliferation assay (AlamarBlue / crystal violet); type: cell-based; details: for stimulation of BCEC proliferation by other hexosamines and structurally related molecules: with or without VEGF, tested alongside ManN
Method: The effect of ManN on EC proliferation was assessed.
AlamarBlue detects mitochondria activity as an indication of cell viability which correlates with cell number at certain ranges.
Proliferation assays with BCECs and BRECs were performed. Log-phase growing BCECs or BRECs (passage <10) were trypsinized, re-suspended and seeded in 96-well plates (no coating) in low-glucose DMEM supplemented with 10% bovine calf serum, 2 mM glutamine, and antibiotics (growth medium), at a density of 1200-1500 cells per well in 200 μl volume. All reagents were added at the indicated final concentrations. After 3-6 days, cells were incubated with AlamarBlue for 4 hrs. Fluorescence was measured at 530 nm excitation wavelength and 590 nm emission wavelength. The experiments were repeated at least three times. […] 20% methanol or 0.05% DMSO served as negative controls. […] Human RMVECs and human adult DMVECs were split into Gelatin-coated 96 wells (2000 cells per well) in low glucose DMEM containing 10% FBS. 1200 cells/well was set up for proliferation assay in low glucose media containing 0.5% FBS. Data was collected at day 4 or 5. HUVEC (p7-10) were grown on gelatin-coated plate until it reached 70-80% confluency.
On the day of the assay, cells were dissociated with 0.05% trypsin, which was neutralized with 0.5% FBS-containing EBM. Cells were briefly spun and then re-suspended in 0.5% FBS-media. Cells were counted and plated in 96-well, 1000 cells/well. Triplicate wells were used for each treatment. Data were collected at day 3, and then cells were fixed in 4% paraformaldehyde for 15 min before adding crystal violet. Cell-covered areas were quantified after taking pictures by Image J software.

[2] = system: ERK, AKT, mTOR, CREB, ACC and eNOS; experiment: Western blot of signal transduction pathways in BCECs; type: cell-based, bovine; details: 40 μM
Method: Cells were allowed to reach-80% confluency in 12-well plates. […] At various time points, plates were taken out of the incubator and kept on ice. […] Lysates were collected and mixed with 4× Bolt LDS Sample Buffer (Novex, Carlsbad, CA) in the presence of Halt protease inhibitors and phosphatase inhibitor cocktail (ThermoFisher scientific, #NP0007). […] HUVECs (passage 6-8) were plated in EBM-2 basal medium (Lonza) with 0.2% FBS. Following overnight culture, cells were serum-starved in EBM-2 medium for 4 hrs prior to treatment with 50 ng/ml of VEGF165 or vehicle controls for various lengths. Equal amounts of protein lysates were analyzed by SDS-PAGE and blotted with the indicated antibodies. Proteins were transferred using Tris-Glycine buffer with 20% Methanol (Proteonomics grade) (Apex BioResearch Products). Membranes were first incubated with 5% milk in TBST, pH 7.6 (TEKnova, Hollister, CA), followed by blotting with primary and secondary antibodies. ECL anti-rabbit IgG, horseradish peroxidase linked whole antibody from donkey or sheep anti-mouse were obtained from GE Healthcare (UK limited). SuperSignal West Dura Extended Duration substrate was from ThermoFisher Scientific. In some cases, the same PVDF membranes were stripped by 8-min incubation in the Restore Plus Western Blot Stripping Buffer (ThermoFisher Scientific) to show total specific protein expression, followed by second stripping for (3-actin expression.

JNK/c-jun = experiment: Western blot of JNK pathway activation in BCECs; type: cell-based, bovine; details: 40 μM; BCECs; FIG. 7E
Method: (§1) Cells were allowed to reach-80% confluency in 12-well plates. […] At various time points, plates were taken out of the incubator and kept on ice. Cell monolayers were first washed once with ice-cold PBS before lysis with 250 μI of Pierce RIPA buffer (ThermoFisher Scientific, Rockford, IL) or use 50 mM Tris-HCl (pH 7.6), 150 mM NaCl, 10% Glycerol, 1% NP-40 containing protease/Phosphatase inhibitor cocktail (100×) (Cell signaling, #5872). Lysates were collected and mixed with 4× Bolt LDS Sample Buffer (Novex, Carlsbad, CA) in the presence of Halt protease inhibitors and phosphatase inhibitor cocktail (ThermoFisher scientific, #NP0007). The samples were subjected to SDS-PAGE (Bolt 4-12% Bis-Tris Plus, Invitrogen) using Bolt MES SDS running buffer or NuPAGE 3-8% Tris-Acetate gel using Tris-Acetate SDS running buffer (Novex). HUVECs (passage 6-8) were plated in EBM-2 basal medium (Lonza) with 0.2% FBS. Following overnight culture, cells were serum-starved in EBM-2 medium for 4 hrs prior to treatment with 50 ng/ml of VEGF165 or vehicle controls for various lengths. Equal amounts of protein lysates were analyzed by SDS-PAGE and blotted with the indicated antibodies. Proteins were transferred using Tris-Glycine buffer with 20% Methanol (Proteonomics grade) (Apex BioResearch Products). Membranes were first incubated with 5% milk in TBST, pH 7.6 (TEKnova, Hollister, CA), followed by blotting with primary and secondary antibodies. ECL anti-rabbit IgG, horseradish peroxidase linked whole antibody from donkey or sheep anti-mouse were obtained from GE Healthcare (UK limited). SuperSignal West Dura Extended Duration substrate was from ThermoFisher Scientific. In some cases, the same PVDF membranes were stripped by 8-min incubation in the Restore Plus Western Blot Stripping Buffer (ThermoFisher Scientific) to show total specific protein expression, followed by second stripping for (3-actin expression.

ERK and AKT = experiment: Western blot of ERK and AKT activation in HUVEC and hDMVECs; type: cell-based, human; details: 40 μM
Method: as §1, with “Membranes were first incubated with 5% milk in TBST, pH 7.6 (TEKnova, Hollister, CA), followed by blotting with primary and secondary antibodies. ECL anti-rabbit IgG, horseradish peroxidase linked whole antibody from donkey or sheep anti-mouse were obtained from GE Healthcare (UK limited). SuperSignal West Dura Extended Duration substrate was from ThermoFisher Scientific. In some cases, the same PVDF membranes were stripped by 8-min incubation in the Restore Plus Western Blot Stripping Buffer (ThermoFisher Scientific) to show total specific protein expression, followed by second stripping for (3-actin expression.” left out

[3] = system: BCEC confluent monolayers; experiment: BCEC scratch assay; type: cell-based, bovine; details: over 48 hours relative to control
Method: BCECs (passage 6-10) and HUVEC (passage 6-8) were used in this assay. Cells were grown until about 80% confluency in 6-well plates, washed twice with PBS and then starved in serum-free DMEM (low Glucose, Hyclone) for 5 hrs before making a “scratch” using 1 ml tip. Cell monolayers were briefly washed once with serum-free media, followed by various treatments in media containing 1% FBS. 48 hrs later, the assay was stopped by adding 2 ml 4% paraformaldehyde. 20 min later, fixed cells were stained with 1 ml Crystal Violet (Sigma). Plates were washed gently under the running tap water and air-dried before taking pictures. Images were acquired by ZEISS Discovery […] microscopy equipped with […] camera. Quantification of wound closure was done using AxioVision LE Rel.4.4 software. Six images were taken for each sample and six measurements (in pixel) were made on each image using AxioVision LE Re1.4.4 software.

retinal vasculature = experiment: Retinal neovascularization after intravitreal injection; type: in vivo, mouse; details: 500 ng ManN or Kif, 200 ng bFGF intravitreally; after seven days
Method: The effect of ManN and Kif on inducing retinal neovascularization was assessed. The findings in cultured eye-derived EC were extended to a suitable in vivo model system. The mouse retina has been used extensively over the past decades to study both physiological and pathological angiogenesis. To obtain a detailed description of the retinal vasculature, images from retinal flat mounts were processed for vascular area fraction (ratio of area covered by blood vessels to total retinal area). Using this model, the effects of ManN in retinal neovascularization were assessed. Kif was also tested in this model because it is a water-soluble inhibitor and its mechanism of glycosylation inhibition is well established. In addition, it shares with ManN the ability to activate ERK, AKT and stress pathways in BCEC (FIG. 7E).
Assessment of retinal angiogenesis following intravitreal administration was done. Briefly, 6-8 weeks old C57BL/6 male mice were randomly allocated to different groups and anesthetized with ketamine/Xylazine cocktail. The indicated amounts of ManN, Kif or bFGF (R&D systems, AF-233-NA) in 1 μl of PBS and PBS vehicle control were injected intravitreally with a 33-gauge Hamilton syringe. Seven days after injection, animals were euthanized. Eyes were then enucleated and fixed in 4% paraformaldehyde (PFA) for 30 mins. Retinas were separated and stained with anti-CD31 immunofluorescence (IF) to evidence the vasculature. Evaluations were performed by an investigator blinded to the treatment. For CD31 IF, rat anti-mouse antibody (BD Biosciences, CAT #550274) was diluted 1:100 and incubated overnight at 4° C. After 4-hour incubation with the Alexa Fluor-488-conjugated anti-rat antibody (Life Technologies, A11006), whole mounts were imaged via the 488 nm channel using AIR Confocal STORM super-resolution system (Nikon). Quantification of vascular density in choroids and retina was carried out by Image J. Each experiment was repeated three times with similar results, and each treatment group consists of 5 individual samples.

Compound: O=C(O)CCCc1ccccc1 [4-PBA, 4-phenylbutyric acid]
- prevention of CHOP induction by ManN (Bip, CHOP, ATF-6; 2 mM 4-PBA or 500 µM TUDCA, ManN at 400 μM and 5 mM): could prevent the induction of CHOP expression
- restoration of ATF-6 expression (Bip, CHOP, ATF-6): restore the expression of ATF-6
- reversal of ManN activity on BCEC proliferation by chaperone ([1]; pre-treating with 1 mM 4-PBA for 4 hours, absence or presence of VEGF): effectively reverse the bell-shaped activity of ManN on BCEC proliferation
- effect of chaperone on ManN/VEGF additivity and ManN toxicity ([1]; pre-treatment with 1 mM 4-PBA for 8 hours, FIG. 5D): abrogated additive effects of 40 μM ManN and 5 ng/ml VEGF and protected cells from toxic effect induced by 2 mM ManN

Compound: O[C@H]1[C@H](O)[C@@H](O)CN2CC[C@H](O)[C@H]12 [Cas, Castanospermine]
- activation of ERK and AKT in BCECs by glycosylation inhibitors ([2]; FIG. 7E): less obvious; also recorded: did not activate ERK
- activation of the JNK pathway by glycosylation inhibitors (JNK/c-jun): able to activate the JNK pathway
- activation of ERK and AKT in human ECs by glycosylation inhibitors (ERK and AKT): less obvious
- Bip expression by glycosylation inhibitors (Bip, CHOP, ATF-6; media without growth factors for 24 hours): dose-dependent induction of Bip expression
- gap closing in BCEC scratch assay by glycosylation inhibitors [3]: significant activity
- BCEC proliferation by glycosylation inhibitors ([1]; 0.01 to 100 μM, 3 days, absence or presence of 5 ng/ml VEGF): stimulated in a dose-dependent fashion

Compound: Cl.NCC(=O)[C@@H](O)[C@H](O)[C@H](O)CO [D-isoglucosamine, 1-Amino-1-deoxy-D-Fructose hydrochloride]
- stimulation of BCEC proliferation by other hexosamines and structurally related molecules [1]: None of these molecules stimulated BCEC proliferation

Compound: CC(=O)N[C@@H]1C(O)O[C@H](CO)[C@@H](O)[C@@H]1O (stereo partly drawn) [ManNAc, N-Acetyl-D-Mannosamine, reference compound]
- activation of ERK, AKT, mTOR, CREB, ACC and eNOS by other sugars ([2]; BCECs, FIG. 2C): induced a similar activation

Compound: CC(=O)N[C@H]1[C@H]([C@H](O)[C@H](O)CO)OC(O)(C(=O)O)C[C@@H]1O (stereo partly shown) [N-Acetylneuraminic acid]
- stimulation of BCEC proliferation by other hexosamines and structurally related molecules [1]: None of these molecules stimulated BCEC proliferation

Compound: C[C@H](CCC(=O)NCCS(=O)(=O)O)[C@H]1CC[C@H]2[C@@H]3[C@@H](O)C[C@@H]4C[C@H](O)CC[C@]4(C)[C@H]3CC[C@]12C [TUDCA, tauroursodeoxycholic acid]
- restoration of ATF-6 expression (Bip, CHOP, ATF-6): much weaker

Compound: N[C@H]1C(O)O[C@H](CO)[C@H](O)[C@@H]1O (stereo partly drawn) [galactosamine, D-(+)-Galactosamine]
- stimulation of BCEC proliferation by other hexosamines and structurally related molecules [1]: none of these hexosamines had significant stimulatory effects

Compound: N[C@H]1C(O)O[C@H](CO)[C@@H](O)[C@@H]1O (stereo partly drawn) [glucosamine, D-(+)-Glucosamine]
- stimulation of BCEC proliferation by other hexosamines and structurally related molecules [1]: none of these hexosamines had significant stimulatory effects

Compound: CNC[C@H](O)[C@@H](O)[C@H](O)[C@H](O)CO [meglumine, Meglumine]
- stimulation of BCEC proliferation by other hexosamines and structurally related molecules [1]: None of these molecules stimulated BCEC proliferation

Compound: C[C@@H](O[C@H]1[C@H](O)[C@@H](CO)OC(O)[C@@H]1N)C(=O)O (stereo partly shown) [muramic acid, Muramic acid]
- stimulation of BCEC proliferation by other hexosamines and structurally related molecules [1]: None of these molecules stimulated BCEC proliferation

Compound: bFGF: bFGF purchased from R&D systems, positive control
- increase in density of retinal vessels vs PBS group (retinal vasculature): about 35%
